Here are results for five compounds from US20240174697A1, “PH-ACTIVABLE FLUORESCENT PROBES FOR TARGETING CELL ORGANELLES” (Purdue Research Foundation, priority 2021, published 2024).

Series [1] in a line: Absorption and fluorescence spectra at different pH solutions, pKa. Format: physicochemical. The note with it: for emission maximum: excitation 480 nm; for emission maximum / absorption maximum: pH solutions of phosphate buffer, 1% DMSO; for pH at which high fluorescence is shown: pH buffer solutions; for pKa: PBS buffer at varying pH, 1% (v/v) DMSO, probe 10 μM, room temperature. The method, then: Spectrum recorded at room temperature in PBS buffer at varying pH with 1% (v/v) of DMSO, in all cases probe concentration=10 μM.
Next, we investigated the absorption and fluorescent properties of LysoShine 1, LysoShine 2, and MitoShine (FIG. 2). The LysoShine 1 in different pH solutions of phosphate buffer (1% DMSO in 1M PBS) has an absorption centered around 500 nm and emission maximum at 505 nm with 480 nm excitation. […] We tested the mitochondrial targeting property of MitoShine (max. absorption 505 nm, max. emission 535 nm, excitation 480 nm). […] We also tested the photophysical property of the important synthetic intermediate compound 10 (absorption maximum 505 nm, max, emission 510 nm at excitation 480 nm).

For series [2], the system named is BV2 microglia. In words: LDH cytotoxicity assay on BV2 microglia. The series is classed as cell-based, mouse. The note with it: for cytotoxicity (LDH release): 2 hour, any tested doses (1, 5, 10 μM), BV2. Here is the method:
The dried fluorescent probes powders were resuspended in cell grade DMSO to prepare 5 mM stock solutions. This stock was used to make a 1, 5, or 10 μM dilution of the probe in cell culture media. The diluted probe solutions were filtered through 0.22 µm filters before adding to the cells.
The cytotoxicity of the fluorescent probes was determined using the Invitrogen™ CyQUANT™ LDH Cytotoxicity Assay kit which measures the release of Lactate dehydrogenase (LDH) from the dead and dying cells. The assay was performed per the manufacturer's protocol. Briefly, BV2 cells (5000 cells/100 μL/well) were seeded in a 96 well plate and cultured for 24 hours at 37° C. in a 5% CO2 incubator. After 24 hours, the media was removed, and the cells were treated with 1, 5, or 10 μM of the probes for 2 or 24 hours of incubation. Three additional wells were treated with the given lysis buffer for 45 minutes (positive control). After the corresponding incubation period, the total LDH release was measured using a fluorescent plate reader. The cells without any probe treatment correspond to spontaneous LDH release and were taken as negative control and the cells treated with the lysis buffer correspond to maximum LDH release. The percentage cytotoxicity of the probes was determined as follows: […]
A general note: LDH in the medium is a marker of cell lysis.

The subject of series [3] is BV2 microglia. Description: Cellular uptake of the fluorescent probes. Format: in vitro ADME, mouse. The note with it: BV2 microglia (FIG. 7). The method, then:
FIG. 7 describes percent uptake efficiency of the fluorescent probes in BV2 microglia. Cellular uptake of the probe at different concentrations after two hours of incubation. The % uptake efficiency was determined as the percentage of probe taken up by cells out of the total amount of probe in the initial incubation solution. Bars depict n=3 data with SD.
Cellular uptake of the florescent probes was determined in-vitro as following: BV2 cells (20,000 cells/well) were seeded in a 96 well plate and cultured overnight at 37° C. in a 5% CO2 incubator. Next day, the media was removed, and the cells were treated with 1, 5, or 10 μM of the probes for 2 hours. After incubation, the supernatant was collected, and the absorbance was recorded at the respective absorbance maxima of the probe. This was compared with absorbance of the probe in media without cells. The percent cellular uptake was calculated as percentage of […]:
% Uptake Efficiency=1-[Asupernatant×100/Aprobe]

In series [4] the test system is BV2 microglia. Description: Confocal imaging, localization of probes in BV2 microglia. The series is classed as cell-based, mouse. The note with it: co-staining LysoTracker Red DND-99 / DAPI. The method, then:
BV2 mouse microglia cells were generously gifted by Dr. Linda J. Van Eldik (University of Kentucky, USA). The BV-2 cell line was developed in the lab of Dr. Elisabetta Blasi at the University of Perugia, Italy. Cells were maintained at 37° C. and 5% CO2 in DMEM/Hams F-12 50/50 Mix supplemented with 10% Fetal Bovine Serum (FBS), 1% L-Glutamine, and 1% Penicillin/Streptomycin. For imaging experiments, 70,000 cells/2 mL/well were seeded on glass coverslips (Corning #12-553-450) in 6-well plates (Corning #08-772-1B). For flow cytometry experiments, 20,000 cells/0.5 mL were seeded in 24-well plates (Corning #3526).
(§1) The localization of the fluorescent probes was visualized using confocal microscopy. The cells were incubated with 10 μM probe for 2 hours and then the media was aspirated. The cells were then incubated with 100 nM LysoTracker (1 mM stock from Thermo #L7528) or with 0.5x MitoLite (1000-fold dilution from 500x stock of AAT Bioquest #22678) for 1.5 hours. The media was aspirated, and the cells were fixed with 4% paraformaldehyde for 10 mins followed by nuclear staining with 1 μM/mL DAPI for 5 mins. For BV2 microglia grown on glass coverslips, the coverslips were removed from the wells and transferred to glass slides with a drop of anti-fade reagent (Thermo Fisher Scientific #P36930). For primary mouse microglia grown in 35 mm glass-bottom dishes, the cells were treated with a few drops of the anti-fade reagent and taken for imaging. The images were captured on a Zeiss LSM 880 Upright Confocal microscope equipped with Plan-Apochromat 20x/0.8 objective.

Series [5] can be described thus: Solubility in aqueous medium / pH solutions. Format: physicochemical. Conditions: for solubility upon addition of pH solutions: final DMSO concentration 1%.
The test system of series [6] is primary mouse microglia. In words: Confocal imaging, localization of probes in primary microglia. The series is classed as cell-based. The note with it: 10 μM probe 2 hours, co-staining LysoTracker / MitoLite / DAPI. The method, then: A detailed protocol for the isolation and culture of primary microglia from adult mouse brains is previously described^2. Briefly, CD11^+ primary microglia were isolated from adult C57BL/6 mice aged 5-7 months of age (both male and female sexes) and cultured as follows. Mice were euthanized with CO2 following the PACUC guidelines, perfused brains were removed and cut into small pieces before homogenizing them in DPBS++with 0.4% DNase-I on the tissue dissociator at 37° C. After filtering the cells through a 70 μm filter, myelin was removed two times, first using gradient centrifugation with Percoll PLUS reagent followed by the use of myelin removal beads on the magnetic column separators. After myelin removal, CD11^+ cells were selected from the single cell suspension using the CD11^+ beads as per the manufacturer's instructions. The CD11^+ cells were finally resuspended in microglia growth media, further diluted in TIC (TGF-β, IL-34, and cholesterol containing) media containing 2% FBS before seeding 0.1×10^6 cells/500 μL/well of a 24-well plate. The cells were maintained at 37° C. and 10% CO2 with half-media change every other day until the day of compound treatment (around 12-14 div). For confocal imaging experiments, around 50,000 cells/2 mL cells were sub-cultured at the center of 35 mm glass-bottom imaging dishes (FluoroDish™ #FD35).
as §1, with “For primary mouse microglia grown in 35 mm glass-bottom dishes, the cells were treated with a few drops of the anti-fade reagent and taken for imaging. The images were captured on a Zeiss LSM 880 Upright Confocal microscope equipped with Plan-Apochromat 20x/0.8 objective.” left out

Series [7] concerns primary mouse microglia. Description: Flow cytometry analysis of probe fluorescence in live cells. The note with it: 10 μM, 2 hours. The series is classed as cell-based. An excerpt:
FIGS. 3A-3E. […] Modal corresponds to a percentage of the maximum count. […] US Ctrl is unstained control. Gating strategy and flow plots with commercial dyes in supporting information.
A detailed protocol for the isolation and culture of primary microglia from adult mouse brains is previously described^2. Briefly, CD11^+ primary microglia were isolated from adult C57BL/6 mice aged 5-7 months of age (both male and female sexes) and cultured as follows. Mice were euthanized with CO2 following the PACUC guidelines, perfused brains were removed and cut into small pieces before homogenizing them in DPBS++with 0.4% DNase-I on the tissue dissociator at 37° C. After filtering the cells through a 70 μm filter, myelin was removed two times, first using gradient centrifugation with Percoll PLUS reagent followed by the use of myelin removal beads on the magnetic column separators. After myelin removal, CD11^+ cells were selected from the single cell suspension using the CD11^+ beads as per the manufacturer's instructions. […]
Primary mouse microglia were treated with 1, 5, or 10 μM fluorescent probes for 2 hours for the cells to uptake the probe. […] Around 10-20 thousand cells were gated from the live cells in order to analyze the cellular fluorescence signal corresponding to the LysoShine/Lysotracker or Mitoshine/MitoLite probes.
On the technique in general: Flow cytometry measures light scatter and fluorescence of single cells or particles in a stream.

For `CCOC(=O)C1=C(C)C2=C(c3ccc(NC(=O)CBr)cc3)c3c(C)c(C(=O)OCC)c(C)n3[B-](F)(F)[N+]2=C1C` [Compound 10, Diethyl 10-(4-(2-bromoacetamido)phenyl)-5,5-difluoro-1,3,7,9-tetramethyl-5H-414,514-dipyrrolo[1,2-c:2′,1′-f][1,3,2]diazaborinine-2,8-dicarboxylate], in series [1], the emission maximum worked out at 510 nm, the “pH at which high fluorescence is shown” value is reported as “less than 3” and the absorption maximum amounted to 505 nm. Further, the “cytotoxicity to BV2 cells” value in series [2] (BV2 cells) was “not cytotoxic”. The cell permeability result in series [3] was “cell permeable”. The “localization of the probe within cell organelles” value (shortened to “localization”) in series [4] is given as “colocalized with nuclei staining dye DAPI”.
As for `CCOC(=O)C1=C(C)C2=C(c3ccc(N(C)C)cc3)c3c(C)c(C(=O)OCC)c(C)n3[B-](F)(F)[N+]2=C1C` [Compound 5, Diethyl 10-(4-(dimethylamino)phenyl)-5,5-difluoro-1,3,7,9-tetramethyl-5H-4λ^4, 5λ^4-dipyrrolo[1,2-c:2′,1′-f][1,3,2]diazaborinine-2,8-dicarboxylate], the “pH at which high fluorescence is shown” value in series [1] is given as ≤ 2.0.
`CCOC(=O)C1=C(C)C2=C(c3ccc(N(C)C)cc3)c3c(C)c(C(=O)OCC)c(C=Cc4ccc(O)cc4)n3[B-](F)(F)[N+]2=C1C` [Compound 6a, Diethyl (E)-10-(4-(dimethylamino)phenyl)-5,5-difluoro-3-(4-hydroxystyryl)-1,7,9-trimethyl-5H-414,514-dipyrrolo[1,2-c:2′,1′-f][1,3,2]diazaborinine-2,8-dicarboxylate]: the “fluorescence spectrum in pH buffers” value in series [1] (pH buffers, solubility affected) was “did not generate a fluorescence spectrum”. In addition, the “solubility in aqueous medium” value in series [5] (aqueous medium) is listed as “sparingly soluble”.
As to `CCOC(=O)C1=C(C)C2=C(c3ccc(NC(=O)CNCCN4CCOCC4)cc3)c3c(C)c(C(=O)OCC)c(C)n3[B-](F)(F)[N+]2=C1C` [LysoShine 2, Diethyl 5,5-difluoro-1,3,7,9-tetramethyl-10-(4-(2-((2-morpholinoethyl)amino)acetamido)phenyl)-5H-4λ^4, 5λ^4-dipyrrolo[1,2-c:2′,1′-f][1,3,2]diaza-borinine-2,8-dicarboxylate], in series [1], the pKa stood at 6.0, the emission maximum is recorded as 512 nm, the “pH at which high fluorescence is shown” value is reported as “less than 6” and the absorption maximum was 500 nm. In series [5], the “solubility upon addition of pH solutions” value was “maintains its solubility”. Further, the “cytotoxicity (LDH release)” value in series [2] is reported as “did not show any cytotoxicity”. In series [6], the “localization” value is “co-localized with the LysoTracker dye within the acidic lysosomes”. Further, in series [4], the “localization” value is listed as “co-colocalization”.
Take `CCOC(=O)C1=C(C)C2=C(c3ccc(NC(=O)CN(CC)CC)cc3)c3c(C)c(C(=O)OCC)c(C)n3[B-](F)(F)[N+]2=C1C` [LysoShine 1, Diethyl 10-(4-(2-(diethylamino)acetamido)phenyl)-5,5-difluoro-1,3,7,9-tetramethyl-5H-4λ^4, 5λ^4-dipyrrolo[1,2-c:2′, 1′-f][1,3,2]diazaborinine-2,8-dicarboxylate]: in series [1], the pKa is listed as 5.4, the emission maximum turned out to be 505 nm, the “pH at which high fluorescence is shown” value is listed as 4 and the absorption maximum entry is “around 500 nm”. Also, in series [5], the “solubility upon addition of pH solutions” value is reported as “maintains its solubility”. Also, the “cytotoxicity (LDH release)” value in series [2] is reported as “did not show any cytotoxicity”. Further, the “fluorescent intensity within the cells” value in series [7] is “higher fluorescent intensity than LysoShine 2”. Further, in series [6], the “localization” value is “co-localized with the LysoTracker dye within the acidic lysosomes”. Besides, in series [4], the “localization” value is recorded as “co-colocalization”.
